How the values were obtained:
[1] = for Normal melting temperature: Crystal, DTA; for vapor or sublimation pressure: Liquid, Determined from thermal gravimetric analysis data
[2] = Molar enthalpy of transition or fusion; settings: Crystal; DSC
[3] = Boiling temperature at pressure P; settings: 94.4 kPa; Liquid; DSC

[O-][n+]1ccccc1S [2-mercaptopyridine N-oxide]
Settings	Molar enthalpy of transition or fusion [kJ/mol]	Normal melting temperature [°C]
[1]	–	71.20
[2]	13.3	–

Cc1cc(C)c[n+]([O-])c1 [3,5-dimethylpyridine N-oxide]
Settings	Boiling temperature at pressure P [°C]	Molar enthalpy of transition or fusion [kJ/mol]	Normal melting temperature [°C]
[1]	–	–	101.30
[2]	–	12.4	–
[3]	291.70	–	–

[O-][n+]1cccc(O)c1 [3-hydroxypyridine-N-oxide]
Settings	Molar enthalpy of transition or fusion [kJ/mol]	Normal melting temperature [°C]
[1]	–	189.70
[2]	18.8	–

Cc1ccc[n+]([O-])c1 [3-picoline N-oxide]
[1]
Settings	vapor or sublimation pressure [kPa]
433.15 K	4.26
435.15 K	4.48
440.15 K	5.4
443.15 K	5.93
445.15 K	6.29
447.15 K	6.89
450.15 K	7.47
453.15 K	8.23
455.15 K	8.91
457.15 K	9.28
460.15 K	10.15
463.15 K	10.93
465.15 K	11.69
467.15 K	12.28
470.15 K	13.42
473.15 K	14.64
475.15 K	15.17
477.15 K	16.14
480.15 K	17.37
483.15 K	18.4
485.15 K	19.19
487.15 K	20.28
490.15 K	21.69
493.15 K	23.24
495.15 K	24.75
497.15 K	25.56
500.15 K	27.36
503.15 K	29.43
505.15 K	31
507.15 K	32.53
510.15 K	35.18
513.15 K	37.62
515.15 K	38.66
517.15 K	40.64

Settings	Boiling temperature at pressure P [°C]	Molar enthalpy of transition or fusion [kJ/mol]	Normal melting temperature [°C]
[1]	–	–	37.10
[2]	–	10.5	–
[3]	283.80	–	–

O=C(O)c1ccc[n+]([O-])c1 [3-pyridinecarboxylic acid N-oxide]
Settings	Molar enthalpy of transition or fusion [kJ/mol]	Normal melting temperature [°C]
[1]	–	258.30
[2]	23.6	–

Cc1cc[n+]([O-])cc1 [4-methylpyridine-N-oxide]
Settings	Boiling temperature at pressure P [°C]	Molar enthalpy of transition or fusion [kJ/mol]	Normal melting temperature [°C]
[1]	–	–	184.60
[2]	–	18.9	–
[3]	287.30	–	–

O=[N+]([O-])c1cc[n+]([O-])cc1 [4-nitropyridine N-oxide]
Settings	Molar enthalpy of transition or fusion [kJ/mol]	Normal melting temperature [°C]
[1]	–	160.80
[2]	17.5	–

O=C(O)c1cc[n+]([O-])cc1 [4-pyridinecarboxylic acid N-oxide]
Settings	Molar enthalpy of transition or fusion [kJ/mol]	Normal melting temperature [°C]
[1]	–	268.50
[2]	24.1	–

O=C(O)c1ccccc1 [benzoic acid]
Settings	Normal melting temperature [°C]
[1]	121.60

NC(=O)c1ccc[n+]([O-])c1 [nicotinamide N-oxide]
Settings	Normal melting temperature [°C]
[1]	289.50

O=C(O)c1cccc[n+]1[O-] [picolinic acid N-oxide]
Settings	Boiling temperature at pressure P [°C]	Molar enthalpy of transition or fusion [kJ/mol]	Normal melting temperature [°C]
[1]	–	–	163.80
[2]	–	30.2	–
[3]	267.60	–	–

[O-][n+]1ccccc1 [pyridine N-oxide]
[1]
Settings	vapor or sublimation pressure [kPa]
425.15 K	2.5
427.15 K	2.66
433.15 K	3.33
435.15 K	3.59
440.15 K	4.28
443.15 K	4.86
445.15 K	5.22
447.15 K	5.5
450.15 K	6.19
453.15 K	6.84
455.15 K	7.36
457.15 K	7.89
460.15 K	8.88
463.15 K	9.76
465.15 K	10.41
467.15 K	11.15
470.15 K	12.44
473.15 K	13.57
475.15 K	14.4
477.15 K	15.28
480.15 K	16.58

Settings	Boiling temperature at pressure P [°C]	Molar enthalpy of transition or fusion [kJ/mol]	Normal melting temperature [°C]
[1]	–	–	63.80
[2]	–	9.68	–
[3]	267.60	–	–

[O-][n+]1cccc2ccccc21 [quinoline 1-oxide]
Settings	Molar enthalpy of transition or fusion [kJ/mol]	Normal melting temperature [°C]
[1]	–	55.40
[2]	10.2	–

Source: the NIST ThermoML archive (doi:10.1016/j.jct.2019.04.014)
